Experimental data reported in patent publication US20250215010A1, “DIAZABICYCLOOCTANE DERIVATIVES USEFUL AS MATRIX METALLOPROTEINASE INHIBITORS” (VASA THERAPEUTICS SPOLKA Z OGRANICZONA ODPOWIEDZIALNOSCIA, priority 2022, published 2025).
Read-outs that look alike come from different tables or passages of the source.

How the values were obtained:
Type in all cases: biochemical
MMP1 = target: T1, MMP1 (Homo sapiens, UniProt P03956); experiment: MMP-1 colorimetric inhibition assay (Enzo kit BML-AK404)
T1 sequence (P03956 100-269 limits assumed): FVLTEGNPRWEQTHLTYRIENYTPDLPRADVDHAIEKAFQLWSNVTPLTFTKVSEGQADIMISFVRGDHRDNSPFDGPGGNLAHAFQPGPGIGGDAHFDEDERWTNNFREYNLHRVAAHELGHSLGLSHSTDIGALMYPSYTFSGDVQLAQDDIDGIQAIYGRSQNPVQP
How it was run: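 Colorimetric kit run per manufacturer protocol. MMP-1 cleaves a thiopeptide substrate (Ac-PLG-[2-mercapto-4-methylpentanoyl]-LG-OC2H5); released thiol reacts with DTNB, monitored at 415 nm. IC50 (nM) from inhibition curves of normalized values.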

MMP2 = target: T2, MMP2 (Homo sapiens, UniProt P08253); experiment: MMP-2 colorimetric inhibition assay (Enzo kit BML-AK408)
T2 sequence (P08253 110-660): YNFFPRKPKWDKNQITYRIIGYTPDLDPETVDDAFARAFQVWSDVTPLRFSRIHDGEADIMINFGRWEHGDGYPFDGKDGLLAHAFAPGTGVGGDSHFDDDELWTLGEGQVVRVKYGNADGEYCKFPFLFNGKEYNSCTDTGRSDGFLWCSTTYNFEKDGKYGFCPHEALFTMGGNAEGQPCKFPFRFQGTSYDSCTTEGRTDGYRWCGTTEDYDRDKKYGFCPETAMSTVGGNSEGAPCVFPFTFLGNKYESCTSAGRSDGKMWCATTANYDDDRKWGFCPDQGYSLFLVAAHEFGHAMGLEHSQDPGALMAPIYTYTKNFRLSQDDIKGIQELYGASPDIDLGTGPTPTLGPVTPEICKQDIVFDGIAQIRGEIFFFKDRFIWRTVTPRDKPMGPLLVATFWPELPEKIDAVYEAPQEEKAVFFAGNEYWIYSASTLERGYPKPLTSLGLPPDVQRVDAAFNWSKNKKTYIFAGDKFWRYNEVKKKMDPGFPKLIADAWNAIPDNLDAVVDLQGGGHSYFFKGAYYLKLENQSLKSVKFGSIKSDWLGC
How it was run: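 Cleavage of the thiopeptide Ac-PLG-[2-mercapto-4-methylpentanoyl]-LG-OC2H5 releases a sulfhydryl that reacts with DTNB, read at 415 nm per the kit protocol. IC50 values (nM) come from inhibition curves of normalized data.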

MMP9 = MMP9 (Homo sapiens, UniProt P14780); experiment: MMP-9 colorimetric inhibition assay (Enzo kit BML-AK410)
Sequence of MMP9 (P14780 94-707): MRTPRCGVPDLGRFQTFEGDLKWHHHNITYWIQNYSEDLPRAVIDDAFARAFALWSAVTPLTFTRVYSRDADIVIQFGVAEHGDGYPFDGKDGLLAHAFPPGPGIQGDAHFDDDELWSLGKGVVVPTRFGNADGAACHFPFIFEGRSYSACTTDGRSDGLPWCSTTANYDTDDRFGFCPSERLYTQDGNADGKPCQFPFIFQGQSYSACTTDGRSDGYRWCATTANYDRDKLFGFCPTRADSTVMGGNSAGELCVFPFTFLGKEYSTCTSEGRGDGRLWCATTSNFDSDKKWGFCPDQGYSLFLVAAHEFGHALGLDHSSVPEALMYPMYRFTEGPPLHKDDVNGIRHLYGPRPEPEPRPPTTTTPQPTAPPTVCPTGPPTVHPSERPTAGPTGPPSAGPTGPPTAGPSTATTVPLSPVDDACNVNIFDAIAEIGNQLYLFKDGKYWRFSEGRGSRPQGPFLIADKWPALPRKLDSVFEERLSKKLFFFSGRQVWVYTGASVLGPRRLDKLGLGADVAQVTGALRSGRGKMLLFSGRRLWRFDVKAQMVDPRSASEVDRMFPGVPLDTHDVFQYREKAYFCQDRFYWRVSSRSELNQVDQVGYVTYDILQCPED
How it was run: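 Colorimetric thioester-substrate assay: hydrolysis of Ac-PLG-[2-mercapto-4-methylpentanoyl]-LG-OC2H5 frees a thiol that reacts with DTNB, read at 415 nm. Run per kit protocol. IC50 (nM) taken from inhibition curves of normalized values.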

MMP13 = target: T3, MMP13 (Homo sapiens, UniProt P45452); experiment: MMP-13 colorimetric inhibition assay (Enzo kit BML-AK412)
T3 construct: purchased Enzo Life Sciences, Inc. BML-AK412
How it was run: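 Thiopeptide chromogenic substrate (Ac-PLG-[2-mercapto-4-methylpentanoyl]-LG-OC2H5); MMP-13 hydrolysis of the thioester yields a thiol that reacts with DTNB, read at 415 nm. IC50 values (nM) derived from inhibition curves of normalized data.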

ADAM17 (TACE) = ADAM17 (TACE) (Homo sapiens, UniProt P78536); experiment: TACE fluorometric inhibition assay (Enzo kit BML-AK310)
Sequence of ADAM17 (TACE) (P78536 215-477 limits assumed): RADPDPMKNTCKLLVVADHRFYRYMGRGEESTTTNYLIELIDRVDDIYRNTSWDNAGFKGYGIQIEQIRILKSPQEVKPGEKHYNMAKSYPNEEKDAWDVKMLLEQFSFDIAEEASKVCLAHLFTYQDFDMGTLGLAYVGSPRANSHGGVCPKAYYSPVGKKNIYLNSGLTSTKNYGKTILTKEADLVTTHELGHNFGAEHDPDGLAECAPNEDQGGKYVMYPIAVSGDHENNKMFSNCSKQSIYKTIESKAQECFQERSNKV
How it was run: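 Kit-based TACE assay run per manufacturer's protocol, using quenched fluorogenic peptide Mca-PLAQAV-Dpa-RSSSR-NH2 whose cleavage raises Mca fluorescence. Signal read at ex/em 320/420 nm; IC50 (nM) derived from inhibition curves of normalized values.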

ADAM10 = target: T4, ADAM10 (Homo sapiens, UniProt O14672); experiment: SensoLyte 520 ADAM10 fluorometric activity assay (AnaSpec AS-72226)
T4 construct: purchased AnaSpec, Inc. AS-72226
T4 sequence (O14672 214-748): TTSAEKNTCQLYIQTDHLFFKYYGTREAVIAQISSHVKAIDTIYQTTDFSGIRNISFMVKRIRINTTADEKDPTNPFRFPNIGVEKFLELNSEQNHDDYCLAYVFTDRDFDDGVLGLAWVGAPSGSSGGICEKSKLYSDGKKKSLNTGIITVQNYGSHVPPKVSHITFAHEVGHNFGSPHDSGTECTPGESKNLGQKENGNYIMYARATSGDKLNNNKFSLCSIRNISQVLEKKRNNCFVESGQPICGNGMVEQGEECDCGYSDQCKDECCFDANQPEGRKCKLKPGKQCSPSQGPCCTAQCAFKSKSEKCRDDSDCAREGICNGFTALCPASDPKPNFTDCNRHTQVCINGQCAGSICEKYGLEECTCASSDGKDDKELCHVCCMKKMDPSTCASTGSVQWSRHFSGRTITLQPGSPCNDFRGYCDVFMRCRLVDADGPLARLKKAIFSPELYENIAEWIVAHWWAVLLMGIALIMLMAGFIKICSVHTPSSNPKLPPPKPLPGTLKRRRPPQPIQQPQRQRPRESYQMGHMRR
How it was run: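 ADAM10 activity was read by cleavage of a FRET peptide substrate (5-FAM/QXL 520), run per the kit protocol, with fluorescence at 495/520 nm. IC50 values (nM) came from inhibition curves of normalized data.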

[1] = thiopeptide substrate, absorbance 415 nm, read-out: MMP 1 IC50 class
[2] = thiopeptide substrate, absorbance 415 nm, read-out: MMP 2 IC50 class
[3] = thiopeptide substrate, absorbance 415 nm, read-out: MMP 9 IC50 class
[4] = thiopeptide substrate, absorbance 415 nm, read-out: MMP 13 IC50 class
[5] = quenched fluorogenic peptide, ex/em 320/420 nm, read-out: TACE IC50 class
[6] = FRET peptide substrate, ex/em 495/520 nm, read-out: ADAM 10 IC50 class

COCCOC(=O)N1[C@@H]2CC[C@H]1[C@H](C(=O)NO)N(S(=O)(=O)c1ccc(Oc3ccc(OC(C)C)cc3)nc1)C2 [Example 30, 2-methoxyethyl (1S,2R,5R)-2-(hydroxycarbamoyl)-3-((6-(4-isopropoxy-phenoxy)pyridin-3-yl)sulfonyl)-3,8-diazabicyclo[3.2.1]-octane-8-carboxylate]
IC50 (MMP1; [1]): 50 to 1000 nM
IC50 (MMP2; [2]): < 50 nM
IC50 (MMP9; [3]): < 50 nM
IC50 (MMP13; [4]): < 50 nM
IC50 (ADAM17 (TACE); [5]): 1000 to 10000 nM
IC50 (ADAM10; [6]): > 10 µM

COCCOC(=O)N1[C@@H]2CC[C@H]1[C@H](C(=O)NO)N(S(=O)(=O)c1ccc(Oc3ccc(OC(F)(F)F)cc3)nc1)C2 [Example 19, 2-methoxyethyl (1S,2R,5R)-2-(hydroxycarbamoyl)-3-((6-(4-(trifluoro-methoxy)phenoxy)-pyridin-3-yl)-sulfonyl)-3,8-diaza-bicyclo[3.2.1]octane-8-carboxylate]
IC50 (MMP1; [1]): 1000 to 10000 nM
IC50 (MMP2; [2]): < 50 nM
IC50 (MMP9; [3]): < 50 nM
IC50 (MMP13; [4]): < 50 nM
IC50 (ADAM17 (TACE); [5]): 1000 to 10000 nM
IC50 (ADAM10; [6]): > 10 µM

COCCOC(=O)N1[C@@H]2CC[C@H]1[C@H](C(=O)NO)N(S(=O)(=O)c1ccc(OC3CCCCC3)nc1)C2 [Example 10, 2-methoxyethyl (1S,2R,5R)-3-((6-(cyclohexyloxy)pyridin-3-yl)sulfonyl)-2-(hydroxycarbamoyl)-3,8-diazabicyclo[3.2.1]octane-8-carboxylate]
IC50 (MMP1; [1]): 50 to 1000 nM
IC50 (MMP2; [2]): < 50 nM
IC50 (MMP9; [3]): < 50 nM
IC50 (MMP13; [4]): < 50 nM
IC50 (ADAM17 (TACE); [5]): 1000 to 10000 nM
IC50 (ADAM10; [6]): > 10 µM

COCCOC(=O)N1[C@@H]2CC[C@H]1[C@H](C(=O)NO)N(S(=O)(=O)c1ccc(Oc3ccc(OC(C)(C)C)cc3)nc1)C2 [Example 31, 2-methoxyethyl (1S,2R,5R)-3-((6-(4-(tert-butoxy)-phenoxy)pyridin-3-yl)sulfonyl)-2-(hydroxycarbamoyl)-3,8-diazabicyclo-[3.2.1]octane-8-carboxylate]
IC50 (MMP1; [1]): > 10000 nM
IC50 (MMP2; [2]): < 50 nM
IC50 (MMP9; [3]): < 50 nM
IC50 (MMP13; [4]): < 50 nM
IC50 (ADAM17 (TACE); [5]): > 10000 nM
IC50 (ADAM10; [6]): > 10 µM

COCCOC(=O)N1[C@@H]2CC[C@H]1[C@H](C(=O)NO)N(S(=O)(=O)c1ccc(Oc3ccc(OC(F)F)cc3)nc1)C2 [Example 24, 2-methoxyethyl (1S,2R,5R)-3-((6-(4-(difluoromethoxy)phenoxy)pyridin-3-yl)sulfonyl)-2-(hydroxycarbamoyl)-3,8-diazabicyclo[3.2.1]octane-8-carboxylate]
IC50 (MMP1; [1]): 1000 to 10000 nM
IC50 (MMP2; [2]): < 50 nM
IC50 (MMP9; [3]): < 50 nM
IC50 (MMP13; [4]): < 50 nM
IC50 (ADAM17 (TACE); [5]): 50 to 1000 nM
IC50 (ADAM10; [6]): 1 to 10 µM

COCCOC(=O)N1[C@@H]2CC[C@H]1[C@H](C(=O)NO)N(S(=O)(=O)c1ccc(Oc3ccc(Cl)cc3F)nc1)C2 [Example 20, 2-methoxyethyl (1S,2R,5R)-3-((6-(4-chloro-2-fluoro-phenoxy)pyridin-3-yl)sulfonyl)-2-(hydroxycarbamoyl)-3,8-diazabicyclo[3.2.1]-octane-8-carboxylate]
IC50 (MMP1; [1]): 50 to 1000 nM
IC50 (MMP2; [2]): < 50 nM
IC50 (MMP9; [3]): < 50 nM
IC50 (MMP13; [4]): < 50 nM
IC50 (ADAM17 (TACE); [5]): 50 to 1000 nM
IC50 (ADAM10; [6]): 1 to 10 µM

CCOc1ccc(Oc2ccc(S(=O)(=O)N3C[C@H]4CC[C@@H]([C@@H]3C(=O)NO)N4C(=O)OCCOC)cn2)cc1 [Example 29, 2-methoxyethyl (1S,2R,5R)-3-((6-(4-ethoxyphenoxy)-pyridin-3-yl)-sulfonyl)-2-(hydroxycarbamoyl)-3,8-diazabicyclo-[3.2.1]octane-8-carboxylate]
IC50 (MMP1; [1]): 50 to 1000 nM
IC50 (MMP2; [2]): < 50 nM
IC50 (MMP9; [3]): < 50 nM
IC50 (MMP13): < 50 nM
IC50 (ADAM17 (TACE); [5]): 1000 to 10000 nM
IC50 (ADAM10; [6]): > 10 µM

COCCOC(=O)N1[C@@H]2CC[C@H]1[C@H](C(=O)NO)N(S(=O)(=O)c1ccc(Oc3ccc(OC)cc3)nc1)C2 [Example 18, 2-methoxyethyl (1S,2R,5R)-2-(hydroxycarbamoyl)-3-((6-(4-methoxy-phenoxy)pyridin-3-yl)sulfonyl)-3,8-diazabicyclo-[3.2.1]octane-8-carboxylate]
IC50 (MMP1; [1]): 1000 to 10000 nM
IC50 (MMP2; [2]): < 50 nM
IC50 (MMP9; [3]): < 50 nM
IC50 (MMP13; [4]): < 50 nM
IC50 (ADAM17 (TACE); [5]): 1000 to 10000 nM
IC50 (ADAM10; [6]): 1 to 10 µM

COCCOC(=O)N1[C@@H]2CC[C@H]1[C@H](C(=O)NO)N(S(=O)(=O)c1ccc(Oc3ccc(C)cc3)nc1)C2 [Example 32, 2-methoxyethyl (1S,2R,5R)-2-(hydroxycarbamoyl)-3-((6-(p-tolyloxy)-pyridin-3-yl)-sulfonyl)-3,8-diazabicyclo[3.2.1]-octane-8-carboxylate]
IC50 (MMP1; [1]): 50 to 1000 nM
IC50 (MMP2; [2]): < 50 nM
IC50 (MMP9; [3]): < 50 nM
IC50 (MMP13; [4]): < 50 nM
IC50 (ADAM17 (TACE); [5]): 1000 to 10000 nM
IC50 (ADAM10; [6]): > 10 µM

O=C(NO)[C@H]1[C@@H]2CC[C@H](CN1S(=O)(=O)c1ccc(Oc3ccc(OCC(F)(F)F)cc3)nc1)N2C(=O)N1CCOCC1 [Example 72, (1S,2R,5R)-N-hydroxy-8-(morpholine-4-carbonyl)-3-((6-(4-(2,2,2-trifluoroethoxy)-phenoxy)pyridin-3-yl)sulfonyl)-3,8-diazabicyclo[3.2.1]-octane-2-carboxamide]
IC50 (MMP1): 1000 to 10000 nM
IC50 (MMP2): < 50 nM
IC50 (MMP9): < 50 nM
IC50 (MMP13): < 50 nM
IC50 (ADAM17 (TACE)): > 10000 nM
IC50 (ADAM10): > 10 µM

COCCOC(=O)N1[C@@H]2CC[C@H]1[C@H](C(=O)NO)N(S(=O)(=O)c1ccc(Oc3cnn(-c4ccccc4)c3)nc1)C2 [Example 39, 2-methoxyethyl (1S,2R,5R)-2-(hydroxycarbamoyl)-3-((6-((1-phenyl-1H-pyrazol-4-yl)oxy)-pyridin-3-yl)sulfonyl)-3,8-diazabicyclo-[3.2.1]octane-8-carboxylate]
IC50 (MMP1; [1]): 50 to 1000 nM
IC50 (MMP2; [2]): < 50 nM
IC50 (MMP9; [3]): < 50 nM
IC50 (MMP13; [4]): < 50 nM
IC50 (ADAM17 (TACE); [5]): 50 to 1000 nM
IC50 (ADAM10; [6]): > 10 µM

COC(=O)N1[C@@H]2CC[C@H]1[C@H](C(=O)NO)N(S(=O)(=O)c1ccc(Oc3ccc(F)cc3)nc1)C2 [Example 66, methyl (1S,2R,5R)-3-((6-(4-fluoro-phenoxy)pyridin-3-yl)sulfonyl)-2-(hydroxycarbamoyl)-3,8-diazabicyclo-[3.2.1]octane-8-carboxylate]
IC50 (MMP1; [1]): 1000 to 10000 nM
IC50 (MMP2; [2]): < 50 nM
IC50 (MMP9; [3]): < 50 nM
IC50 (MMP13; [4]): < 50 nM
IC50 (ADAM17 (TACE); [5]): 1000 to 10000 nM
IC50 (ADAM10; [6]): > 10 µM
